Measurements published in ChEMBL document CHEMBL3407338, “Synthesis and structure-activity relationship of novel 1,4-diazabicyclo[2.2.2]octane derivatives as potent antimicrobial agents” (Eur J Med Chem, 2015).
One block for each molecule: values may come before it.

Key:
[1] = tested on: Pseudomonas aeruginosa; assay: Antimicrobial activity against 10^7 CFU/ml Pseudomonas aeruginosa ATCC 9027 assessed as reduction in CFU/ml at measured at 10 ug/ml after 5 hrs by time-kill kinetic study relative to control; type: functional; parameters: scale not given: the % may be the effect or the level left
[2] = tested on: MEF; assay: Cytotoxicity against mouse MEF cells after 72 hrs by MTT assay; type: cell-based
[3] = tested on: Candida albicans; assay: Antimicrobial activity against 10^7 CFU/ml Candida albicans ATCC 32354 after 22 hrs by serial microdilution method; type: functional; details: ATCC 32354, 22 h
[4] = tested on: Escherichia coli; assay: Antimicrobial activity against 10^7 CFU/ml Escherichia coli ATCC 25922 after 22 hrs by serial microdilution method; type: functional; details: ATCC 25922, 22 h
[5] = tested on: Pseudomonas aeruginosa; assay: Antimicrobial activity against 10^4 CFU/ml Pseudomonas aeruginosa ATCC 9027 assessed as reduction in CFU/ml at measured at 10 ug/ml after 2.5 hrs by time-kill kinetic study relative to control; type: functional; parameters: scale not given: the % may be the effect or the level left
[6] = tested on: Escherichia coli; assay: Antimicrobial activity against 10^4 CFU/ml Escherichia coli ATCC 25922 after 22 hrs by serial microdilution method; type: functional; details: ATCC 25922, 22 h
[7] = tested on: HEK-293T; assay: Cytotoxicity against human HEK293T cells after 72 hrs by MTT assay; type: cell-based
[8] = tested on: Staphylococcus aureus; assay: Antimicrobial activity against 10^7 CFU/ml Staphylococcus aureus ATCC 25923 after 22 hrs by serial microdilution method; type: functional; details: ATCC 25923, 22 h
[9] = tested on: Staphylococcus aureus; assay: Antimicrobial activity against 10^4 CFU/ml Staphylococcus aureus ATCC 25923 assessed as reduction in CFU/ml at measured at 10 ug/ml after 5 hrs by time-kill kinetic study relative to control; type: functional; parameters: scale not given: the % may be the effect or the level left
[10] = tested on: Staphylococcus aureus; assay: Antimicrobial activity against 10^7 CFU/ml Staphylococcus aureus ATCC 25923 assessed as reduction in CFU/ml at measured at 10 ug/ml after 22 hrs by time-kill kinetic study relative to control; type: functional; parameters: scale not given: the % may be the effect or the level left
[11] = tested on: Staphylococcus aureus; assay: Antimicrobial activity against 10^4 CFU/ml Staphylococcus aureus ATCC 25923 assessed as reduction in CFU/ml at measured at 10 ug/ml after 2.5 hrs by time-kill kinetic study relative to control; type: functional; parameters: scale not given: the % may be the effect or the level left
[12] = tested on: Escherichia coli; assay: Antimicrobial activity against Escherichia coli ATCC 25922 at 1 ug/ml after 24 hrs by agar diffusion method; type: functional; details: ATCC 25922, 24 h, read-out: DIZ
[13] = tested on: Staphylococcus aureus; assay: Antimicrobial activity against 10^7 CFU/ml Staphylococcus aureus ATCC 25923 assessed as reduction in CFU/ml at measured at 10 ug/ml after 5 hrs by time-kill kinetic study relative to control; type: functional; parameters: scale not given: the % may be the effect or the level left
[14] = tested on: Pseudomonas aeruginosa; assay: Antimicrobial activity against 10^4 CFU/ml Pseudomonas aeruginosa ATCC 9027 assessed as reduction in CFU/ml at measured at 10 ug/ml after 22 hrs by time-kill kinetic study relative to control; type: functional; parameters: scale not given: the % may be the effect or the level left
[15] = Cytotoxicity against mouse LMTK cells after 72 hrs by MTT assay; type: cell-based; details: L-M(TK-)
[16] = tested on: RPMI-8226; assay: Cytotoxicity against human RPMI8226 cells after 72 hrs by MTT assay; type: cell-based; details: RPMI-8226, 72 h
[17] = tested on: Staphylococcus aureus; assay: Antimicrobial activity against 10^4 CFU/ml Staphylococcus aureus ATCC 25923 after 22 hrs by serial microdilution method; type: functional; details: ATCC 25923, 22 h
[18] = tested on: Candida albicans; assay: Antimicrobial activity against 10^4 CFU/ml Candida albicans ATCC 32354 after 22 hrs by serial microdilution method; type: functional; details: ATCC 32354, 22 h
[19] = tested on: Pseudomonas aeruginosa; assay: Antimicrobial activity against 10^7 CFU/ml Pseudomonas aeruginosa ATCC 9027 assessed as reduction in CFU/ml at measured at 10 ug/ml after 22 hrs by time-kill kinetic study relative to control; type: functional; parameters: scale not given: the % may be the effect or the level left
[20] = tested on: Bacillus subtilis; assay: Antimicrobial activity against 10^4 CFU/ml Bacillus subtilis ATCC 6633 after 22 hrs by serial microdilution method; type: functional; details: ATCC 6633, 22 h
[21] = tested on: Salmonella enterica; assay: Antimicrobial activity against Salmonella enterica ATCC 14028 at 1 ug/ml after 24 hrs by agar diffusion method; type: functional; details: ATCC 14028, 24 h, read-out: DIZ
[22] = tested on: Staphylococcus aureus; assay: Antimicrobial activity against 10^4 CFU/ml Staphylococcus aureus ATCC 25923 assessed as reduction in CFU/ml at measured at 10 ug/ml after 22 hrs by time-kill kinetic study relative to control; type: functional; parameters: scale not given: the % may be the effect or the level left
[23] = tested on: Staphylococcus aureus; assay: Antimicrobial activity against 10^7 CFU/ml Staphylococcus aureus ATCC 25923 assessed as reduction in CFU/ml at measured at 10 ug/ml after 2.5 hrs by time-kill kinetic study relative to control; type: functional; parameters: scale not given: the % may be the effect or the level left
[24] = tested on: Candida albicans; assay: Antimicrobial activity against Candida albicans ATCC 32354 at 1 ug/ml after 24 hrs by agar diffusion method; type: functional; details: ATCC 32354, 24 h, read-out: DIZ
[25] = tested on: Pseudomonas aeruginosa; assay: Antimicrobial activity against 10^4 CFU/ml Pseudomonas aeruginosa ATCC 9027 after 22 hrs by serial microdilution method; type: functional; details: ATCC 9027, 22 h
[26] = tested on: Pseudomonas aeruginosa; assay: Antimicrobial activity against Pseudomonas aeruginosa ATCC 9027 at 1 ug/ml after 24 hrs by agar diffusion method; type: functional; details: ATCC 9027, 24 h, read-out: DIZ
[27] = tested on: Pseudomonas aeruginosa; assay: Antimicrobial activity against 10^7 CFU/ml Pseudomonas aeruginosa ATCC 9027 after 22 hrs by serial microdilution method; type: functional; details: ATCC 9027, 22 h
[28] = tested on: Pseudomonas aeruginosa; assay: Antimicrobial activity against 10^4 CFU/ml Pseudomonas aeruginosa ATCC 9027 assessed as reduction in CFU/ml at measured at 10 ug/ml after 5 hrs by time-kill kinetic study relative to control; type: functional; parameters: scale not given: the % may be the effect or the level left
[29] = tested on: Bacillus subtilis; assay: Antimicrobial activity against Bacillus subtilis ATCC 6633 at 1 ug/ml after 24 hrs by agar diffusion method; type: functional; details: ATCC 6633, 24 h, read-out: DIZ
[30] = tested on: Pseudomonas aeruginosa; assay: Antimicrobial activity against 10^7 CFU/ml Pseudomonas aeruginosa ATCC 9027 assessed as reduction in CFU/ml at measured at 10 ug/ml after 2.5 hrs by time-kill kinetic study relative to control; type: functional; parameters: scale not given: the % may be the effect or the level left
[31] = tested on: Salmonella enterica; assay: Antimicrobial activity against 10^4 CFU/ml Salmonella enterica ATCC 14028 after 22 hrs by serial microdilution method; type: functional; details: ATCC 14028, 22 h
[32] = tested on: Staphylococcus aureus; assay: Antimicrobial activity against Staphylococcus aureus ATCC 25923 at 1 ug/ml after 24 hrs by agar diffusion method; type: functional; details: ATCC 25923, 24 h, read-out: DIZ
[33] = tested on: Bacillus subtilis; assay: Antimicrobial activity against 10^7 CFU/ml Bacillus subtilis ATCC 6633 after 22 hrs by serial microdilution method; type: functional; details: ATCC 6633, 22 h
[34] = tested on: Salmonella enterica; assay: Antimicrobial activity against 10^7 CFU/ml Salmonella enterica ATCC 14028 after 22 hrs by serial microdilution method; type: functional; details: ATCC 14028, 22 h

MIC [3]: < 1.6 µg/mL | MIC [4]: 6.3 µg/mL | MIC [6]: 6.3 µg/mL | MIC [8]: 6.3 µg/mL | MIC [17]: 3.1 µg/mL | MIC [18]: < 1.6 µg/mL | MIC [20]: < 1.6 µg/mL | MIC [25]: 1.6 µg/mL | MIC [27]: 12.5 µg/mL | MIC [31]: 12.5 µg/mL | MIC [33]: 3.1 µg/mL | MIC [34]: 12.5 µg/mL
Compound: CCCCCCCCCC[N+]12CC[N+](CCCCC[N+]34CC[N+](CCCCCCCCCC)(CC3)CC4)(CC1)CC2.[Br-].[Br-].[Br-].[Br-]
Activity [1]: 43% | IC50 [2]: 23.4 µg/mL | MBC [3]: < 1.6 µg/mL | MBC [4]: 12.5 µg/mL | Activity [5]: 62.3% | MBC [6]: 6.3 µg/mL | IC50 [7]: 93.8 µg/mL | MBC [8]: 6.3 µg/mL | Activity [9]: 100% | Activity [10]: 100% | Activity [11]: 100% | zone of inhibition at 1 µg/mL [12]: 10 mm | Activity [13]: 100% | Activity [14]: 25% | IC50 [15]: 56.4 µg/mL | IC50 [16]: 45.2 µg/mL | MBC [17]: 12.5 µg/mL | MBC [18]: < 1.6 µg/mL | Activity [19]: 0% | MBC [20]: < 1.6 µg/mL | zone of inhibition at 1 µg/mL [21]: 7 mm | Activity [22]: 100% | Activity [23]: 100% | zone of inhibition at 1 µg/mL [24]: 10 mm | MBC [25]: 1.6 µg/mL | zone of inhibition at 1 µg/mL [26]: 6 mm | MBC [27]: 25 µg/mL | Activity [28]: 99.2% | zone of inhibition at 1 µg/mL [29]: 10 mm | Activity [30]: 0% | MBC [31]: 25 µg/mL | zone of inhibition at 1 µg/mL [32]: 10 mm | MBC [33]: 3.1 µg/mL | MBC [34]: 50 µg/mL

MIC [3]: 12.5 µg/mL | MIC [4]: 6.3 µg/mL | MIC [6]: 3.1 µg/mL | MIC [8]: 6.3 µg/mL | MIC [17]: 3.1 µg/mL | MIC [18]: 3.1 µg/mL | MIC [20]: < 1.6 µg/mL | MIC [25]: < 1.6 µg/mL | MIC [27]: 6.3 µg/mL | MIC [31]: 25 µg/mL | MIC [33]: 3.1 µg/mL | MIC [34]: 25 µg/mL
Compound: CCCCCCCCCCCC[N+]12CC[N+](CCCCC[N+]34CC[N+](CCCCCCCCCCCC)(CC3)CC4)(CC1)CC2.[Br-].[Br-].[Cl-].[Cl-]
Activity [1]: 100% | IC50 [2]: 12.7 µg/mL | MBC [3]: 12.5 µg/mL | MBC [4]: 6.3 µg/mL | Activity [5]: 99.9% | MBC [6]: 3.1 µg/mL | IC50 [7]: 23.4 µg/mL | MBC [8]: 12.5 µg/mL | Activity [9]: 100% | Activity [10]: 100% | Activity [11]: 100% | zone of inhibition at 1 µg/mL [12]: 9 mm | Activity [13]: 100% | Activity [14]: 100% | IC50 [15]: 25.6 µg/mL | IC50 [16]: 11.7 µg/mL | MBC [17]: 6.3 µg/mL | MBC [18]: 6.3 µg/mL | Activity [19]: 100% | MBC [20]: < 1.6 µg/mL | zone of inhibition at 1 µg/mL [21]: 7 mm | Activity [22]: 100% | Activity [23]: 100% | zone of inhibition at 1 µg/mL [24]: 10 mm | MBC [25]: < 1.6 µg/mL | zone of inhibition at 1 µg/mL [26]: 7 mm | MBC [27]: 6.3 µg/mL | Activity [28]: 100% | zone of inhibition at 1 µg/mL [29]: 10 mm | Activity [30]: 100% | MBC [31]: 25 µg/mL | zone of inhibition at 1 µg/mL [32]: 10 mm | MBC [33]: 3.1 µg/mL | MBC [34]: 50 µg/mL
